{"source": "patent US12171230B2", "about": "“Herbicidal compositions” (Bayer Aktiengesellschaft, priority 2018, dated 2024)", "assay_type_in_all_cases": "in vivo", "key": {"[1]": {"tested_on": "Chenopodium album", "assay": "Post-emergence herbicidal action against Chenopodium album", "protocol": "When the observed efficacies exceed the formal sum total of the values of the tests with individual applications, they also exceed the expected value according to Colby, which is calculated using the formula below and is likewise regarded as an indication of synergism (cf. S. R. Colby; in Weeds 15 (1967) p. 20 to 22): E^C=A+B−([…])\nHere: • A=efficacy of the active compound (A) in % at an application rate of a g a.i./ha; • B=efficacy of the active compound (B) in % at an application rate of b g a.i./ha; • E^C=expected value of the effect of the combination (A)+(B) in % at the combined application rate a+b g a.i./ha.\nSeeds or rhizome pieces of mono- and dicotyledonous weeds are placed in sandy loam in pots, covered with soil and grown in a greenhouse under good growth conditions (temperature, air humidity, water supply). Three weeks after sowing, the test plants were treated at the three-leaf stage with the compositions according to the invention. The compositions according to the invention formulated as spray powders or as emulsion concentrates were sprayed onto the green plant parts in various dosages with an application rate of 300 to 800 l/ha of water (equivalent). After the test plants have been left to stand in the greenhouse under optimal growth conditions for about 3 to 4 weeks, the action of the preparations is scored visually in comparison to untreated controls. The compositions according to the invention also have good post-emergence herbicidal activity against a broad spectrum of economically important gramineous and broadleaf weeds."}, "[2]": {"tested_on": "Bidens pilosa", "assay": "Post-emergence herbicidal action against Bidens pilosa", "method_in_brief": "(§1)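 Greenhouse pot test, sandy loam; weeds from seed or rhizome. Post-emergence spray at three-leaf stage (3 wk after sowing), 300–800 l/ha water, various dosages. Visual % efficacy vs untreated at 3–4 wk; Colby expected value used to flag synergism.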"}, "[3]": {"tested_on": "Echinochloa crus-galli", "assay": "Post-emergence herbicidal action against Echinochloa crus-galli", "conditions": "100 g a.i./ ha, post-emergence", "method_in_brief": "as §1"}, "[4]": {"tested_on": "Poa annua", "assay": "Post-emergence herbicidal action against Poa annua", "method_in_brief": "as §1"}, "[5]": {"tested_on": "Brachiaria decumbens", "assay": "Post-emergence herbicidal action against Brachiaria decumbens", "conditions": "g of a.i./ha: 200, 100, 100 + 200", "excerpt": "The following abbreviations are used in the description and the tables that follow: • g of a.i./ha=grams of active substance (active ingredient) (=100% active compound) per hectare; • The sum total of the effects of the individual applications is reported under E^A; • expected values according to Colby are each reported under E^C.\nThe rating period is reported in days after application (DAT)."}, "[6]": {"tested_on": "Phalaris minor", "assay": "Post-emergence herbicidal action against Phalaris minor", "method_in_brief": "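Rates are given as grams of active ingredient (100% active compound) per hectare. E^A is the summed effect of the individual applications and E^C the expected value by Colby, with ratings timed in days after application (DAT).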"}, "[7]": {"tested_on": "Lamium purpureum", "assay": "Post-emergence herbicidal action against Lamium purpureum", "method_in_brief": "as §1"}}, "note": "Values joined by “and” are separate entries in the source; they are usually repeats but may differ in a detail not shown here. Equal values may be shown once."}
{"smiles": "C=C[C@]1(C(=O)N[C@H]2CO[C@@H](C(=O)OC)C2)CC(c2cc(F)cc(F)c2)=NO1", "note": "(relative stereo) [Compound A3, methyl rel-(2R,4R)-4-[[(5S)-3-(3,5-difluorophenyl)-5-vinyl-4H-isoxazole-5-carbonyl]amino]tetrahydrofuran-2-carboxylate]", "values": [{"measurement": "Herbicidal action 27 DAT [%] against Chenopodium album", "setting": "[1]; 100 g of a.i./ha", "value": 85, "unit": "%"}, {"measurement": "Herbicidal action 27 DAT against Chenopodium album", "setting": "[1]; g of a.i./ha: 180, 100, 100 + 180", "value": 85, "unit": "%"}, {"measurement": "Herbicidal action 21 DAT [%] against Bidens pilosa", "setting": "[2]; 1.7 g of a.i./ha", "value": "10% and 0%"}, {"measurement": "Herbicidal action 21 DAT against Bidens pilosa", "setting": "[2]; 1.7 g of a.i./ha", "value": 10, "unit": "%"}, {"measurement": "Herbicidal action 21 DAT [%] against Bidens pilosa", "setting": "[2]; 1.7 g of a.i./ha, post-emergence, block with (B1.14) Tembotrione", "value": 10, "unit": "%"}, {"measurement": "Herbicidal action 21 DAT [%] against Bidens pilosa", "setting": "[2]; 1.7 g of a.i./ha, post-emergence, block with (B1.7) Mesotrione", "value": 0, "unit": "%"}, {"measurement": "Herbicidal action 21 DAT [%] against Bidens pilosa", "setting": "[2]; 5 g of a.i./ha", "value": 10, "unit": "%"}, {"measurement": "Herbicidal action 21 DAT against Bidens pilosa", "setting": "[2]; 5 g of a.i./ha", "value": 10, "unit": "%"}, {"measurement": "Herbicidal action 21 DAT [%] against Bidens pilosa", "setting": "[2]; 5 g of a.i./ha, post-emergence, block with (B1.14) Tembotrione", "value": 10, "unit": "%"}, {"measurement": "Herbicidal action 21 DAT [%] against Bidens pilosa", "setting": "[2]; 5 g of a.i./ha, post-emergence, block with (B1.7) Mesotrione", "value": 10, "unit": "%"}, {"measurement": "Herbicidal action 21 DAT [%] against Bidens pilosa", "setting": "[2]; 15 g of a.i./ha", "value": 50, "unit": "%"}, {"measurement": "Herbicidal action 21 DAT [%] against Bidens pilosa", "setting": "[2]; 15 g of a.i./ha, post-emergence, block with (B1.7) Mesotrione", "value": 25, "unit": "%"}, {"measurement": "Herbicidal action", "setting": "[2]; 21 DAT, 1.7 g a.i./ha", "value": 10, "unit": "%"}, {"measurement": "Herbicidal action", "setting": "[2]; 21 DAT, 5 g a.i./ha", "value": 10, "unit": "%"}, {"measurement": "Herbicidal action 21 DAT [%] against Bidens pilosa", "setting": "[2]; post-emergence, 21 DAT, 1.7 g of a.i./ha", "value": 0, "unit": "%"}, {"measurement": "Herbicidal action 21 DAT [%] against Bidens pilosa", "setting": "[2]; post-emergence, 21 DAT, 5 g of a.i./ha", "value": 10, "unit": "%"}, {"measurement": "Herbicidal action 21 DAT [%] against Bidens pilosa", "setting": "[2]; post-emergence, 21 DAT, 15 g of a.i./ha", "value": 25, "unit": "%"}, {"measurement": "Herbicidal action 37 DAT [%] against Echinochloa crus-galli", "setting": "[3]", "value": 93, "unit": "%"}, {"measurement": "Herbicidal action 28 DAT against Poa annua L.", "setting": "[4]; 1 g of a.i./ha", "value": 15, "unit": "%"}, {"measurement": "Herbicidal action in [%] 14 DAT against Poa annua L.", "setting": "[4]; 1 g of a.i./ha", "value": "40% and 50%"}, {"measurement": "Herbicidal action in [%] 28 DAT against Poa annua L.", "setting": "[4]; 1 g of a.i./ha", "value": "15% and 20%"}, {"measurement": "Herbicidal action in [%] 28 DAT against Poa annua", "setting": "[4]; 1 g of a.i./ha, post-emergence", "value": 30, "unit": "%"}, {"measurement": "Herbicidal action in [%] 14 DAT against Poa annua L.", "setting": "[4]; 4 g of a.i./ha", "value": 85, "unit": "%"}, {"measurement": "Herbicidal action in [%] 28 DAT against Poa annua L.", "setting": "[4]; 4 g of a.i./ha", "value": 80, "unit": "%"}, {"measurement": "Herbicidal action", "setting": "[4]; 14 DAT, 1 g a.i./ha", "value": 50, "unit": "%"}, {"measurement": "Herbicidal action against Poa annua L.", "setting": "[4]; 14 DAT, 1 g of a.i./ha", "value": 40, "unit": "%"}, {"measurement": "Herbicidal action", "setting": "[4]; 14 DAT, 4 g a.i./ha", "value": 85, "unit": "%"}, {"measurement": "Herbicidal action against Poa annua L.", "setting": "[4]; 14 DAT, 16 g of a.i./ha", "value": 85, "unit": "%"}, {"measurement": "Herbicidal action 28 DAT against Poa annua L.", "setting": "[4]; 16 g of a.i./ha", "value": 40, "unit": "%"}, {"measurement": "Herbicidal action in [%] 14 DAT against Poa annua L.", "setting": "[4]; 16 g of a.i./ha", "value": 85, "unit": "%"}, {"measurement": "Herbicidal action", "setting": "[4]; 28 DAT, 1 g a.i./ha", "value": 20, "unit": "%"}, {"measurement": "Herbicidal action against Poa annua L.", "setting": "[4]; 28 DAT, 1 g of a.i./ha", "value": 15, "unit": "%"}, {"measurement": "Herbicidal action", "setting": "[4]; 28 DAT, 4 g a.i./ha", "value": 80, "unit": "%"}, {"measurement": "Herbicidal action", "setting": "[4]; 28 DAT, 16 g a.i./ha", "value": 85, "unit": "%"}, {"measurement": "Herbicidal action against Poa annua L.", "setting": "[4]; 28 DAT, 16 g of a.i./ha", "value": 40, "unit": "%"}, {"measurement": "Herbicidal action", "setting": "[4]; 28 DAT, 50 g a.i./ha", "value": 0, "unit": "%"}, {"measurement": "Herbicidal action in [%] 14 DAT against Poa annua L.", "setting": "[4]; post-emergence, 14 DAT, 1 g of a.i./ha", "value": 50, "unit": "%"}, {"measurement": "Herbicidal action in [%] 14 DAT against Poa annua L.", "setting": "[4]; post-emergence, 14 DAT, 4 g of a.i./ha", "value": 85, "unit": "%"}, {"measurement": "Herbicidal action in [%] 14 DAT against Poa annua L.", "setting": "[4]; post-emergence, 14 DAT, 16 g of a.i./ha", "value": 93, "unit": "%"}, {"measurement": "Herbicidal action in [%] 28 DAT against Poa annua L.", "setting": "[4]; post-emergence, 28 DAT, 1 g of a.i./ha", "value": 20, "unit": "%"}, {"measurement": "Herbicidal action in [%] 28 DAT against Poa annua L.", "setting": "[4]; post-emergence, 28 DAT, 4 g of a.i./ha", "value": 80, "unit": "%"}, {"measurement": "Herbicidal action in [%] 28 DAT against Poa annua L.", "setting": "[4]; post-emergence, 28 DAT, 16 g of a.i./ha", "value": 85, "unit": "%"}, {"measurement": "Herbicidal action 28 DAT against Brachiaria decumbens", "setting": "[5]", "value": 87, "unit": "%"}, {"measurement": "Herbicidal action 14 DAT against Phalaris minor", "setting": "[6]; 1 g of a.i./ha", "value": 10, "unit": "%"}, {"measurement": "Herbicidal action 28 DAT against Phalaris minor", "setting": "[6]; 1 g of a.i./ha", "value": "0% and 10%"}, {"measurement": "Herbicidal action 28 DAT against Phalaris minor", "setting": "[6]; 4 g of a.i./ha", "value": 70, "unit": "%"}, {"measurement": "Herbicidal action in [%] 14 DAT against Phalaris minor", "setting": "[6]; 1 g of a.i./ha", "value": 20, "unit": "%"}, {"measurement": "Herbicidal action in [%] 14 DAT against Phalaris minor", "setting": "[6]; 4 g of a.i./ha", "value": 85, "unit": "%"}, {"measurement": "Herbicidal action in [%] 14 DAT against Phalaris minor", "setting": "[6]; 16 g of a.i./ha", "value": 85, "unit": "%"}, {"measurement": "Herbicidal action 28 DAT against Phalaris minor", "setting": "[6]; 16 g of a.i./ha", "value": 40, "unit": "%"}, {"measurement": "Herbicidal action in [%] 28 DAT against Phalaris minor", "setting": "[6]; 1 g of a.i./ha", "value": 10, "unit": "%"}, {"measurement": "Herbicidal action in [%] 28 DAT against Phalaris minor", "setting": "[6]; 16 g of a.i./ha", "value": 85, "unit": "%"}, {"measurement": "Herbicidal action 14 DAT against Lamium purpureum L.", "setting": "[7]; 1 g of a.i./ha", "value": 65, "unit": "%"}, {"measurement": "Herbicidal action 28 DAT against Lamium purpureum L.", "setting": "[7]; 1 g of a.i./ha", "value": 25, "unit": "%"}, {"measurement": "Herbicidal action in [%] 14 DAT against Lamium purpureum L.", "setting": "[7]; 1 g of a.i./ha", "value": 65, "unit": "%"}, {"measurement": "Herbicidal action in [%] 28 DAT against Lamium purpureum L.", "setting": "[7]; 1 g of a.i./ha", "value": 25, "unit": "%"}, {"measurement": "Herbicidal action in [%] 28 DAT against Lamium purpureum L.", "setting": "[7]; 4 g of a.i./ha", "value": 40, "unit": "%"}, {"measurement": "Herbicidal action against Lamium purpureum L.", "setting": "[7]; 14 DAT, 1 g of a.i./ha", "value": 65, "unit": "%"}, {"measurement": "Herbicidal action against Lamium purpureum L.", "setting": "[7]; 28 DAT, 1 g of a.i./ha", "value": 25, "unit": "%"}, {"measurement": "Herbicidal action against Lamium purpureum L.", "setting": "[7]; 28 DAT, 4 g of a.i./ha", "value": 40, "unit": "%"}, {"measurement": "Herbicidal action 32 DAT [%] against Lamium purpureum", "setting": "[7]; 100 g of a.i./ha, post-emergence", "value": 50, "unit": "%"}]}
